pEC50: −log10 of the molar value. Counter-ions that a name gives are not always drawn. Like-named read-outs stand apart in the source and are kept apart here. Some results are limits rather than exact numbers.

The values below come from patent US9617283B2, “Bicyclic heterocycle compounds and their uses in therapy” (ASTEX THERAPEUTICS LIMITED, priority 2012, dated 2017).

The target of assay [1] is T1, BIR3 domain of human XIAP (residues 252-350) (Homo sapiens, UniProt P98170).
T1 construct: BIR3 domain of human XIAP (residues 252-350); His-tag (cleaved yes); made in house; host or cells: Escherichia coli
T1 sequence (P98170 252-350): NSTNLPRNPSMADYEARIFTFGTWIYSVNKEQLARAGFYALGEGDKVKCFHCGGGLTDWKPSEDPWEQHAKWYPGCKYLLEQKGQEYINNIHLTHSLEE
The assay is described as follows: XIAP in vitro competitive displacement binding assay (fluorescence polarization). Conditions: 1 h, percent inhibition (PI) at 0.04 μM; read-out: Xiap IC50 or PI μM. (In general: Polarisation of emitted light reports the rotation of a fluorescent probe.)

Assay [2] relates to EVSA-T (human breast carcinoma). The assay is described as follows: Anti-proliferative activity, Alamar Blue assay, EVSA-T. The class given is cell-based. Background: The colour change of resazurin is a common sign of viable cells or microbes.
[3] abbreviates: Homo sapiens, EVSA-T, 72 h, EVSA-T cell line, 72 hours, Alamar Blue; read-out: EVSA-T prolif.
[4] abbreviates: Homo sapiens, EVSA-T; read-out: EC50 in EVSA-T cell line assays.
[5] abbreviates: Homo sapiens, EVSA-T, read-out: EC50 in EVSA-T cell line assays.

As to `C[C@@H]1CN(CC(=O)N2CC(C)(C)c3ncc(Cc4ccc(F)cc4)cc32)[C@@H](CN2CC3(COC3)CC2=O)CN1` [Example 12, 6-{[(2R,5R)-1-(2-{6-[(4-Fluorophenyl)methyl]-3,3-dimethyl-1H,2H,3H-pyrrolo[3,2-b]pyridin-1-yl}-2-oxoethyl)-5-methylpiperazin-2-yl]methyl}-2-oxa-6-azaspiro[3.4]octan-7-one L-lactate], the inhibition at 0.04 µM in assay [1] stood at 42%. The pEC50 in assay [2] (setting [3]) is 8.15; in assay [2] (setting [4]), > 6.00.

Take `C[C@@H]1CN(CC(=O)N2CC(C)(C)c3ncc(Cc4ccc(F)cc4)cc32)[C@@H](CN2Cc3ccncc3C2=O)CN1` [Example 19, 2-{[(2R,5R)-1-(2-{6-[(4-Fluorophenyl)methyl]-3,3-dimethyl-1H,2H,3H-pyrrolo[3,2-b]pyridin-1-yl}-2-oxoethyl)-5-methylpiperazin-2-yl]methyl}-1H,2H,3H-pyrrolo[3,4-c]pyridin-3-one, dihydrochloride]: the inhibition at 0.04 µM in assay [1] came to 64%. Also, the pEC50 is 8.62 in assay [2] (setting [3]) and > 6.00 in assay [2] (setting [4]).

Regarding `C[C@@H]1CN(CC(=O)N2CC(C)(C)c3cnc(Cc4ccc(F)cc4)cc32)[C@@H](CN2Cc3ncccc3C2=O)CN1` [Example 20, 6-{[(2R,5R)-1-(2-{6-[(4-Fluorophenyl)methyl]-3,3-dimethyl-1H,2H,3H-pyrrolo[3,2-c]pyridin-1-yl}-2-oxoethyl)-5-methylpiperazin-2-yl]methyl}-5H,6H,7H-pyrrolo[3,4-b]pyridin-5-one, dihydrochloride], the inhibition at 0.04 µM in assay [1] came out at 76%. Further, in assay [2] (EVSA-T cell line, % at 0.001 μM), the “EVSA-T prolif μM” value stood at 92% at. For the same compound, the pEC50 in assay [2] (setting [5]) was > 6.00.

`C[C@@H]1CN(CC(=O)N2CC(C)(C)c3ncc(Cc4ccc(F)cc4)cc32)[C@@H](CN2CCCCC2=O)CN1` [Example 21, 1-{[(2R,5R)-1-(2-{6-[(4-Fluorophenyl)methyl]-3,3-dimethyl-1H,2H,3H-pyrrolo[3,2-b]pyridin-1-yl}-2-oxoethyl)-5-methylpiperazin-2-yl]methyl}piperidin-2-one, dihydrochloride]: the inhibition at 0.04 µM in assay [1] stood at 44%. Further, the pEC50 was 8.68 in assay [2] (setting [3]) and > 6.00 in assay [2] (setting [5]).

Take `CC1=C(C)C(=O)N(C[C@H]2CN[C@H](C)CN2CC(=O)N2CC(C)(C)c3ncc(Cc4ccc(F)cc4F)cc32)C1` [Example 24, 1-{[(2R,5R)-1-(2-{6-[(2,4-Difluorophenyl)methyl]-3,3-dimethyl-1H,2H,3H-pyrrolo[3,2-b]pyridin-1-yl}-2-oxoethyl)-5-methylpiperazin-2-yl]methyl}-3,4-dimethyl-2,5-dihydro-1H-pyrrol-2-one, dihydrochloride]: in assay [1], the inhibition at 0.04 µM worked out at 72%. The pEC50 in assay [2] (setting [3]) was 8.77; in assay [2] (setting [4]) it was > 6.00.

`CCCC(F)(F)c1cc2c(cn1)C(C)(C)CN2C(=O)CN1C[C@@H](C)NC[C@@H]1CN1C[C@H](C)OCC1=O` [Example 26, (6S)-4-{[(2R,5R)-1-{2-[6-(1,1-Difluorobutyl)-3,3-dimethyl-1H,2H,3H-pyrrolo[3,2-c]pyridin-1-yl]-2-oxoethyl}-5-methylpiperazin-2-yl]methyl}-6-methylmorpholin-3-one, dihydrochloride]: the inhibition at 0.04 µM in assay [1] worked out at 60%. Moreover, the values for the pEC50 in assay [2] (setting [3]) and in assay [2] (setting [4]) were 7.57 and > 6.00, respectively.

Regarding `CCCC(F)(F)c1cc2c(cn1)C(C)(C)CN2C(=O)CN1C[C@@H](C)NC[C@@H]1CN1Cc2ccccc2C1=O` [Example 27, 2-{[(2R,5R)-1-{2-[6-(1,1-Difluorobutyl)-3,3-dimethyl-1H,2H,3H-pyrrolo[3,2-c]pyridin-1-yl]-2-oxoethyl}-5-methylpiperazin-2-yl]methyl}-2,3-dihydro-1H-isoindol-1-one, dihydrochloride], in assay [1], the inhibition at 0.04 µM is 75%. Moreover, the pEC50 was 8.28 in assay [2] (setting [3]) and > 6.00 in assay [2] (setting [4]).

As for `CCCC(F)(F)c1cc2c(cn1)C(C)(C)CN2C(=O)CN1C[C@@H](C)NC[C@@H]1CN1CC(C)=C(C)C1=O` [Example 28, 1-{[(2R,5R)-1-{2-[6-(1,1-Difluorobutyl)-3,3-dimethyl-1H,2H,3H-pyrrolo[3,2-c]pyridin-1-yl]-2-oxoethyl}-5-methylpiperazin-2-yl]methyl}-3,4-dimethyl-2,5-dihydro-1H-pyrrol-2-one, dihydrochloride], the inhibition at 0.04 µM in assay [1] turned out to be 67%. Also, the figures for the pEC50 in assay [2] (setting [3]) and in assay [2] (setting [4]) were 8.00 and > 6.00, respectively.

With `C[C@@H]1CN(CC(=O)N2CC(C)(C)c3ncc(Cc4ccc(F)cc4F)cc32)[C@@H](CN2CC(C)(C)CC2=O)CN1` [Example 30, 1-{[(2R,5R)-1-(2-{6-[(2,4-Difluorophenyl)methyl]-3,3-dimethyl-1H,2H,3H-pyrrolo[3,2-b]pyridin-1-yl}-2-oxoethyl)-5-methylpiperazin-2-yl]methyl}-4,4-dimethylpyrrolidin-2-one dihydrochloride], the inhibition at 0.04 µM in assay [1] came out at 70%. Further, the pEC50 in assay [2] (setting [3]) is 8.96; in assay [2] (setting [5]), > 6.00.

On to `C[C@@H]1CN(CC(=O)N2CC(C)(C)c3cnc(Cc4ccc(F)cc4F)cc32)[C@@H](CN2CC(C)(C)CC2=O)CN1` [Example 32, 1-{[(2R,5R)-1-(2-{6-[(2,4-Difluorophenyl)methyl]-3,3-dimethyl-1H,2H,3H-pyrrolo[3,2-c]pyridin-1-yl}-2-oxoethyl)-5-methylpiperazin-2-yl]methyl}-4,4-dimethylpyrrolidin-2-one dihydrochloride], for which the inhibition at 0.04 µM in assay [1] was 71%. Also, the pEC50 in assay [2] (setting [3]) is 8.89; in assay [2] (setting [4]), > 6.00.

Take `CC1=C(C)C(=O)N(C[C@H]2CN[C@H](C)CN2CC(=O)N2CC(C)(C)c3cnc(Cc4ccc(F)cc4F)cc32)C1` [Example 33, 1-{[(2R,5R)-1-(2-{6-[(2,4-Difluorophenyl)methyl]-3,3-dimethyl-1H,2H,3H-pyrrolo[3,2-c]pyridin-1-yl}-2-oxoethyl)-5-methylpiperazin-2-yl]methyl}-3,4-dimethyl-2,5-dihydro-1H-pyrrol-2-one dihydrochloride]: in assay [1], the inhibition at 0.04 µM is 81%. The pEC50 in assay [2] (setting [3]) was 8.96; in assay [2] (setting [4]) it was > 6.00.

As for `CC1=C(C)C(=O)N(C[C@H]2CN[C@H](C)CN2CC(=O)N2CC(C)(C)c3cnc(Cc4ccc(F)cc4)cc32)C1` [Example 36, 1-{[(2R,5R)-1-(2-{6-[(4-Fluorophenyl)methyl]-3,3-dimethyl-1H,2H,3H-pyrrolo[3,2-c]pyridin-1-yl}-2-oxoethyl)-5-methylpiperazin-2-yl]methyl}-3,4-dimethyl-2,5-dihydro-1H-pyrrol-2-one dihydrochloride], the inhibition at 0.04 µM in assay [1] was 74%. Moreover, the results for the pEC50 in assay [2] (setting [3]) and in assay [2] (setting [4]) were 8.77 and > 6.00, respectively.

As to `CCCC(F)(F)c1cc2c(cn1)C(C)(C)CN2C(=O)CN1C[C@@H](C)NC[C@@H]1CN1CC(C)(C)CC1=O` [Example 38, 1-{[(2R,5R-1-{2-[6-(1,1-Difluorobutyl)-3,3-dimethyl-1H,2H,3H-pyrrolo[3,2-c]pyridin-1-yl]-2-oxoethyl}-5-methylpiperazin-2-yl]methyl}-4,4-dimethylpyrrolidin-2-one dihydrochloride], the inhibition at 0.04 µM in assay [1] turned out to be 76%. The pEC50 was 7.89 in assay [2] (setting [3]) and > 6.00 in assay [2] (setting [4]).
